Measurements from patent publication US20090239845A1, “PYRAZOLE COMPOUNDS AS PROSTAGLANDIN RECEPTORS LIGANDS” (priority 2005, published 2009).
Counter-ions that a name gives are not always drawn.

Molecular target: T1, human EP1 receptor (Homo sapiens, UniProt P34995)
T1 construct: expressed in transfected cells; host or cells: CHO-K1
T1 sequence (P34995 1-402): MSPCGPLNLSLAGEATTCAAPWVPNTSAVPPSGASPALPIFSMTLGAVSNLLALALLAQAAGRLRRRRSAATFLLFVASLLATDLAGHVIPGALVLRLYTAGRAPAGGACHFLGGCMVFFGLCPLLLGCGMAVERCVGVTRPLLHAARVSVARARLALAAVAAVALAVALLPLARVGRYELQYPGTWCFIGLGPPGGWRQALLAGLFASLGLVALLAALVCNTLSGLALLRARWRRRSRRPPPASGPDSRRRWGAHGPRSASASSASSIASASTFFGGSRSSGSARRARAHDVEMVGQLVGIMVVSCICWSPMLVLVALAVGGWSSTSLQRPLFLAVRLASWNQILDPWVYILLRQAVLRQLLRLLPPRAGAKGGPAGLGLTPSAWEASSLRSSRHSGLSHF
Assay: human EP1 calcium mobilisation assay
Type: cell-based
Conditions: negative logarithm10 of the antagonist dissociation constant; CHO-K1 cells, PGE2; free bases or sodium salts; averages of a number of experiments; read-out: functional pKi value (converted)

| Ki [nM] | SMILES |
| --- | --- |
| > 1000 | Cc1cc(NC(=O)OC(C)(C)C)nn1Cc1cc(Br)ccc1OCc1ccc(F)cc1F [Example 6, 1,1-Dimethylethyl {1-[(5-bromo-2-{[(2,4-difluorophenyl)methyl]oxy}phenyl)methyl]-5-methyl-1H-pyrazol-3-yl}carbamate] |
| > 1000 | Cc1cc(NC(=O)OC(C)C)nn1Cc1cc(Br)ccc1OCc1ccc(Cl)cc1Cl [Example 9, 1-Methylethyl {1-[(5-bromo-2-{[(2,4-dichlorophenyl)methyl]oxy}phenyl)methyl]-5-methyl-1H-pyrazol-3-yl]carbamate] |
| > 1000 | Cc1cc(NC(=O)Cc2ccccc2)nn1Cc1cc(Cl)ccc1OCc1cc(F)c(F)cc1F [Example 126, N-{1-[(5-Chloro-2-{[(2,4,5-trifluorophenyl)methyl]oxy}phenyl)methyl]-5-methyl-1H-pyrazol-3-yl}-2-phenylacetamide] |

Molecular target: T2, human prostanoid EP1 receptor (Homo sapiens, UniProt P34995)
T2 construct: expressed in transfected cells; host or cells: CHO-K1 (membrane fraction)
T2 sequence (P34995 1-402): T1 sequence (P34995 1-402)
Assay: Binding assay for the human prostanoid EP1 receptor (competition with [3H]-PGE2)
Conditions: negative logarithm10 of the IC50; competition with [3H]-PGE2, CHO-K1 cell membranes; averages of a number of experiments; read-out: pIC50 value (converted)
Experimental: Competition assay using [^3H]-PGE2.
Compound potencies are determined using a radioligand binding assay. In this assay compound potencies are determined from their ability to compete with tritiated prostaglandin E2 ([^3H]-PGE2) for binding to the human EP1 receptor.
This assay utilises Chinese hamster ovary-K1 (CHO-K1) cells into which a stable vector containing the EP1 cDNA has previously been transfected. Cells are cultured in suitable flasks containing culture medium such as DMEM:F-12 supplemented with 10% v/v foetal calf serum, 2 mM L-glutamine, 0.25 mg/ml geneticin, 10 μg/ml puromycin and 10 μM indomethacin.
Cells are detached from the culture flasks by incubation in calcium and magnesium free phosphate buffered saline containing 1 mM disodium ethylenediaminetetraacetic acid (Na2EDTA) and 10 μM indomethacin for 5 min. The cells are isolated by centrifugation at 250×g for 5mins and suspended in an ice cold buffer such as 50 mM Tris, 1 mM Na2EDTA, 140 mM NaCl, 10 μM indomethacin (pH 7.4). The cells are homogenised using a Polytron tissue disrupter (2×10s burst at full setting), centrifuged at 48,000×g for 20mins and the pellet containing the membrane fraction is washed (optional) three times by suspension and centrifugation at 48,000×g for 20mins. The final membrane pellet is suspended in an assay buffer such as 10 mM 2-[N-morpholino]ethanesulphonic acid, 1 mM Na2EDTA, 10 mM MgCl2 (pH 6). Aliquots are frozen at −80° C. until required.
For the binding assay the cell membranes, competing compounds and [^3H]-PGE2 (3 nM final assay concentration) are incubated in a final volume of 100 μl for 30 min at 30° C. All reagents are prepared in assay buffer. Reactions are terminated by rapid vacuum filtration over GF/B filters using a Brandell cell harvester. The filters are washed with ice cold assay buffer, dried and the radioactivity retained on the filters is measured by liquid scintillation counting in Packard TopCount scintillation counter.
The data are analysed using non linear curve fitting techniques to determine the concentration of compound producing 50% inhibition of specific binding (IC50).

| SMILES | IC50 [nM] |
| --- | --- |
| Cc1cc(NC(=O)OC(C)(C)C)nn1Cc1cc(Br)ccc1OCc1ccc(F)cc1F [Example 6, 1,1-Dimethylethyl {1-[(5-bromo-2-{[(2,4-difluorophenyl)methyl]oxy}phenyl)methyl]-5-methyl-1H-pyrazol-3-yl}carbamate] | ≤ 10 |
| Cc1cc(NC(=O)OC(C)C)nn1Cc1cc(Br)ccc1OCc1ccc(Cl)cc1Cl [Example 9, 1-Methylethyl {1-[(5-bromo-2-{[(2,4-dichlorophenyl)methyl]oxy}phenyl)methyl]-5-methyl-1H-pyrazol-3-yl]carbamate] | ≤ 10 |
| Cc1cc(NC(=O)Cc2ccccc2)nn1Cc1cc(Cl)ccc1OCc1cc(F)c(F)cc1F [Example 126, N-{1-[(5-Chloro-2-{[(2,4,5-trifluorophenyl)methyl]oxy}phenyl)methyl]-5-methyl-1H-pyrazol-3-yl}-2-phenylacetamide] | ≤ 10 |
| Cc1cc(-c2nnn[nH]2)nn1Cc1cc(Cl)ccc1OCc1ccccc1 [Example 353, 5-[1-({5-Chloro-2-[(phenylmethyl)oxy]phenyl}methyl)-5-methyl-1H-pyrazol-3-yl]-1H-tetrazole] | ≤ 10 |
| Cc1cc(C(=O)NS(=O)(=O)c2ccccc2)nn1Cc1cc(Cl)ccc1OCc1ccccc1 [Example 355, 1-({5-Chloro-2-[(phenylmethyl)oxy]phenyl}methyl)-5-methyl-N-(phenylsulfonyl)-1H-pyrazole-3-carboxamide] | ≤ 10 |
| Cc1noc(C)c1S(=O)(=O)NC(=O)c1cc(C)n(Cc2cc(Cl)ccc2OCc2ccccc2)n1 [Example 356, 1-({5-Chloro-2-[(phenylmethyl)oxy]phenyl}methyl)-N-[(3,5-dimethyl-4-isoxazolyl)sulfonyl]-5-methyl-1H-pyrazole-3-carboxamide] | ≤ 10 |
| Cc1cc(-c2nc3ncccc3[nH]2)nn1Cc1cc(Cl)ccc1OCC(C)C [Example 372, 2-[1-({5-Chloro-2-[(2-methylpropyl)oxy]phenyl}methyl)-5-methyl-1H-pyrazol-3-yl]-1H-imidazo[4,5-b]pyridine hydrochloride] | ≤ 10 |
| Cc1cc(-c2nc3ccncc3[nH]2)nn1Cc1cc(Cl)ccc1OCC(C)C [Example 373, 2-[1-({5-Chloro-2-[(2-methylpropyl)oxy]phenyl}methyl)-5-methyl-1H-pyrazol-3-yl]-1H-imidazo[4,5-c]pyridine hydrochloride] | ≤ 10 |
| Cc1cc(-c2nc3ccc(N4CCN(C)CC4)cc3[nH]2)nn1Cc1cc(Cl)ccc1OCC(C)C [Example 375, 2-[1-({5-Chloro-2-[(2-methylpropyl)oxy]phenyl}methyl)-5-methyl-1H-pyrazol-3-yl]-5-(4-methyl-1-piperazinyl)-1H-benzimidazole trihydrochloride] | ≤ 10 |
| Cc1cc(-c2nc3cc(CO)ccc3[nH]2)nn1Cc1cc(Cl)ccc1OCC(C)C [Example 377, {2-[1-({5-Chloro-2-[(2-methylpropyl)oxy]phenyl}methyl)-5-methyl-1H-pyrazol-3-yl]-1H-benzimidazol-5-yl}methanol hydrochloride] | ≤ 10 |

The remaining lines, values ahead:

| IC50 [nM] | SMILES |
| --- | --- |
| ≤ 10 | Cc1c(-c2nc3cc(CN4CCN(C)CC4)ccc3[nH]2)cnn1Cc1cc(Cl)ccc1OCC(C)C [Example 381, 2-[1-({5-Chloro-2-[(2-methylpropyl)oxy]phenyl}meth-yl)-5-methyl-1H-pyrazol-4-yl]-5-[(4-methyl-1-piperazinyl)methyl]-1H-benzimidazole trihydrochloride] |
| ≤ 10 | CCN1CCN(Cc2ccc3[nH]c(-c4cnn(Cc5cc(Cl)ccc5OCC(C)C)c4C)nc3c2)CC1 [Example 382, 2-[1-({5-Chloro-2-[(2-methylpropyl)oxy]phenyl}meth-yl)-5-methyl-1H-pyrazol-4-yl]-5-[(4-ethyl-1-piperazinyl)methyl]-1H-benzimidazole trihydrochloride] |
| ≤ 10 | CNCc1ccc(NC(=O)c2cc(C)n(Cc3cc(Cl)ccc3OCC(C)C)n2)cc1 [Example 392, 1-({5-Chloro-2-[(2-methylpropyl)oxy]phenyl}methyl)-5-methyl-N-{4-[(methylamino)methyl]phenyl}-1H-pyrazole-3-carboxamide hydrochloride] |
| ≤ 10 | CCNCc1ccc(NC(=O)c2cc(C)n(Cc3cc(Cl)ccc3OCC(C)C)n2)cc1 [Example 393, 1-({5-Chloro-2-[(2-methylpropyl}oxy]phenyl}methyl)-N-{4-[(ethylamino)methyl]phenyl}-5-methyl-1H-pyrazole-3-carboxamide hydrochloride] |
| ≤ 10 | Cc1cc(C(=O)Nc2ccc(CN(C)C)cc2)nn1Cc1cc(Cl)ccc1OCC(C)C [Example 394, 1-({5-Chloro-2-[(2-methylpropyl)oxy]phenyl}methyl)-N-{4-[(dimethylamino)methyl]phenyl}-5-methyl-1H-pyrazole-3-carboxamide hydrochloride] |
| ≤ 10 | Cc1cc(C(=O)Nc2ccc(CNC(C)C)cc2)nn1Cc1cc(Cl)ccc1OCC(C)C [Example 395, 1-({5-Chloro-2-[(2-methylpropyl)oxy]phenyl}methyl)-5-methyl-N-(4-{[(1-methylethyl)amino]methyl}phenyl)-1H-pyrazole-3-carboxamide hydrochloride] |
| ≤ 10 | Cc1cc(C(=O)Nc2ccc(CN3CCCC3)cc2)nn1Cc1cc(Cl)ccc1OCC(C)C [Example 396, 1-({5-Chloro-2-[(2-methylpropyl)oxy]phenyl}methyl)-5-methyl-N-[4-(1-pyrrolidinylmethyl)phenyl]-1H-pyrazole-3-carboxamide hydrochloride] |
| ≤ 10 | Cc1cc(C(=O)Nc2ccc(CN3CCCCC3)cc2)nn1Cc1cc(Cl)ccc1OCC(C)C [Example 397, 1-({5-Chloro-2-[(2-methylpropyl)oxy]phenyl}methyl)-5-methyl-N-[4-(1-piperidinylmethyl)phenyl]-1H-pyrazole-3-carboxamide hydrochloride] |
| ≤ 10 | Cc1cc(C(=O)Nc2ccc(CN3CCOCC3)cc2)nn1Cc1cc(Cl)ccc1OCC(C)C [Example 398, 1-({5-Chloro-2-[(2-methylpropyl)oxy]phenyl}methyl)-5-methyl-N-[4-(4-morpholinylmethyl)phenyl]-1H-pyrazole-3-carboxamide hydrochloride] |
| ≤ 10 | Cc1cc(C(=O)Nc2ccc(CN3CCNC(=O)C3)cc2)nn1Cc1cc(Cl)ccc1OCC(C)C [Example 399, 1-({5-Chloro-2-[(2-methylpropyl)oxy]phenyl}methyl)-5-methyl-N-{4-[(3-oxo-1-piperazinyl)methyl]phenyl}-1H-pyrazole-3-carboxamide hydrochloride] |
| ≤ 10 | Cc1cc(-c2nc3ccc(N(C)C)cc3[nH]2)nn1Cc1cc(Cl)ccc1OCC(C)C [Example 473, 2-[1-({5-Chloro-2-[(2-methylpropyl)oxy]phenyl}methyl)-5-methyl-1H-pyrazol-3-yl]-N,N-dimethyl-1H-benzimidazol-5-amine dihydrochloride] |
